The values that follow come from US9199946B2, “Pyrimidinone carboxamide inhibitors of endothelial lipase” (BRISTOL-MYERS SQUIBB COMPANY, priority 2012, dated 2015).

Structures are written as SMILES.

What is called IC50 is the concentration at which inhibition is half-maximal.

The target in the first assay is T1, Endothelial lipase (EL) (Homo sapiens, UniProt Q9Y5X9).
T1 construct: HT-1080 cells, which were transformed by RAGE technology (Athersys) to overexpress endogenous EL; endogenous in cells; conditioned medium used as the enzyme source
T1 sequence (Q9Y5X9 21-500): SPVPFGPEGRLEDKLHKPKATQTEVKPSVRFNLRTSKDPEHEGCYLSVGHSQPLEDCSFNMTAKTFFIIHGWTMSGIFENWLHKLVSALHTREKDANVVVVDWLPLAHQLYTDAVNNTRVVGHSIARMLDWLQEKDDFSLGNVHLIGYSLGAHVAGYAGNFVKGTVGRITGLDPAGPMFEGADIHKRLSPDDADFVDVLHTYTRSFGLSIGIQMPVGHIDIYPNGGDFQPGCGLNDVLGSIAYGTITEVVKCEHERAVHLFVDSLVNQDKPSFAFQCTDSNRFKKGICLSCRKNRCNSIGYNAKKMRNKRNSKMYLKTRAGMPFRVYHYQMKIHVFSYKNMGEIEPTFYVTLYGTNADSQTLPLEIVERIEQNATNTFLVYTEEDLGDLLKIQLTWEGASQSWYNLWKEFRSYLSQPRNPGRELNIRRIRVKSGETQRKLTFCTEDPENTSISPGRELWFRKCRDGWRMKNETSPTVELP
As to the kind of experiment: Endothelial lipase (EL) enzymatic assay with fluorescent substrate A10070 in DMPG vesicles. The format is biochemical. As to conditions: conditioned media from HT-1080 cells overexpressing endogenous EL; 20 min preincubation at 37° C.; read-out: EL IC50. As to the method: Endothelial lipase activity was measured using a fluorescent substrate, A10070, (Invitrogen, CA) doped into an artificial vesicle containing DMPG (Avanti Polar Lipids) as the excipient. Vesicles were prepared by combining 285 μL of 1 mM DMPG in a 1:1 mixture of MeOH and CHCl3 with 15 μL of 1 mM A10070 in a 1:1 mixture of MeOH and CHCl3. The mixture was dried under nitrogen and resuspended in 150 μL of 50 mM HEPES pH 8.0 buffer containing 100 mM NaCl and 0.2 mM EDTA. The sample was allowed to sit at rt for 15 min and then was sonicated 3×4 mins on ice with a Branson Sonicator using duty cycle 1. This preparation provides vesicles with a mole fraction of 0.05 for the FRET substrate.
The enzymatic assay was measured using white, opaque 96-well half area plates. Each well contained 60 μL of assay buffer (50 mM HEPES pH 8.0, 50 mM NaCl and 1 mM CaCl2) and 2 ul of a DMSO solution containing compound of interest. Conditioned media obtained from HT-1080 cells, which were transformed by RAGE technology (Athersys) to overexpress endogenous EL, was added and the reaction was allowed to incubate for 20 min at 37° C. with gentle agitation. The reaction was started by the addition of 20 μL of a 1:4 dilution of vesicles. The final total reaction volume was 100 μL. The reaction rates were measured on a Gemini plate reader with an excitation wavelength of 488 nm and an emission of 530 nm. Readings were taken every 20 seconds for 10 min with agitation between each reading. The slope of the linear portion of the readout was used to calculate the rate of the reaction.
Regarding `Nc1c(C(=O)N[C@@H]2CCc3c2cccc3C(F)(F)F)[nH]c(=O)[nH]c1=O` [Example 14, (R)-5-amino-2,6-dioxo-N-(4-(trifluoromethyl)-2,3-dihydro-1H-inden-1-yl)-1,2,3,6-tetrahydropyrimidine-4-carboxamide], the half-maximal inhibitory concentration (IC50) was determined as 2.78 µM.

For `Nc1c(C(=O)N[C@H]2CCc3ccc(C(F)(F)F)cc32)[nH]c(=O)[nH]c1=O` [Example 15, (S)-5-amino-2,6-dioxo-N-(6-(trifluoromethyl)-2,3-dihydro-1H-inden-1-yl)-1,2,3,6-tetrahydropyrimidine-4-carboxamide], the IC50 worked out at 13 µM.

On to `CS(=O)(=O)N1CCC(NC(=O)c2[nH]c(=O)[nH]c(=O)c2N)c2ccccc21` (centres unmarked) [Example 24, 5-amino-N-(1-(methylsulfonyl)-1,2,3,4-tetrahydroquinolin-4-yl)-2,6-dioxo-1,2,3,6-tetrahydropyrimidine-4-carboxamide], for which the IC50 stood at 0.568 µM. As for `Nc1c(C(=O)NC2CCN(C(=O)Nc3ccc(C(F)(F)F)cc3)c3ccccc32)[nH]c(=O)[nH]c1=O` (centres unmarked) [Example 26, 4-(5-amino-2,6-dioxo-1,2,3,6-tetrahydropyrimidine-4-carboxamido)-N-(4-(trifluoromethyl)phenyl)-3,4-dihydroquinoline-1(2H)-carboxamide], the IC50 is 9.86 µM.

Staying with this assay, now noted: range observed in the EL assay; read-out: EL IC50 values.
In the case of `Nc1c(C(=O)NC2CCC(c3ccccc3)CC2)[nH]c(=O)[nH]c1=O` (centres unmarked) [Example 2, 5-amino-2,6-dioxo-N-(4-phenylcyclohexyl)-1,2,3,6-tetrahydropyrimidine-4-carboxamide], the IC50 was at most 10 µM.

`Nc1c(C(=O)N[C@H]2CC[C@@H](c3ccccc3)CC2)[nH]c(=O)[nH]c1=O` [Example 3, 5-amino-2,6-dioxo-N-(cis-4-phenylcyclohexyl)-1,2,3,6-tetrahydropyrimidine-4-carboxamide]: the IC50 is at most 10 µM. Still for that read-out and setting: with `CO[C@]1(c2ccc(F)cc2)CC[C@@H](NC(=O)c2[nH]c(=O)[nH]c(=O)c2N)CC1` [Example 4, 5-amino-N-(cis-4-(4-fluorophenyl)-4-methoxycyclohexyl)-2,6-dioxo-1,2,3,6-tetrahydropyrimidine-4-carboxamide] the figure was at most 10 µM. Same read-out and setting: with `Nc1c(C(=O)N[C@@H]2CCc3c(Cl)cc(Cl)cc32)[nH]c(=O)[nH]c1=O` [Example 5, (R)-5-amino-N-(4,6-dichloro-2,3-dihydro-1H-inden-1-yl)-2,6-dioxo-1,2,3,6-tetrahydropyrimidine-4-carboxamide] the figure was at most 10 µM; with `Nc1c(C(=O)NC2CCC(c3ccccc3)c3ccccc32)[nH]c(=O)[nH]c1=O` (centres unmarked) [Example 6, 5-amino-2,6-dioxo-N-(4-phenyl-1,2,3,4-tetrahydronaphthalen-1-yl)-1,2,3,6-tetrahydropyrimidine-4-carboxamide], at most 10 µM. The same measure, in the same setting: next, `N#C[C@]1(c2ccc(Cl)c(Cl)c2)CC[C@@H](NC(=O)c2[nH]c(=O)[nH]c(=O)c2N)CC1` [Example 7, 5-amino-N-(cis-4-cyano-4-(3,4-dichlorophenyl)cyclohexyl)-2,6-dioxo-1,2,3,6-tetrahydropyrimidine-4-carboxamide]: at most 10 µM; `Nc1c(C(=O)NC2Cc3ccccc3C2Cc2ccccc2)[nH]c(=O)[nH]c1=O` (centres unmarked) [Example 8, 5-amino-N-(1-benzyl-2,3-dihydro-1H-inden-2-yl)-2,6-dioxo-1,2,3,6-tetrahydropyrimidine-4-carboxamide]: at most 10 µM; `Nc1c(C(=O)N[C@@H]2CCc3ccccc32)[nH]c(=O)[nH]c1=O` [Example 9, (R)-5-amino-N-(2,3-dihydro-1H-inden-1-yl)-2,6-dioxo-1,2,3,6-tetrahydropyrimidine-4-carboxamide]: at most 10 µM. Turning to `Nc1c(C(=O)N[C@H]2CCCc3ccccc32)[nH]c(=O)[nH]c1=O` [Example 10, (S)-5-amino-2,6-dioxo-N-(1,2,3,4-tetrahydronaphthalen-1-yl)-1,2,3,6-tetrahydropyrimidine-4-carboxamide], the IC50 was at most 10 µM. The same measure, in the same setting: next, `COc1ccc2c(c1)C(NC(=O)c1[nH]c(=O)[nH]c(=O)c1N)CC2` (centres unmarked) [Example 11, 5-amino-N-(6-methoxy-2,3-dihydro-1H-inden-1-yl)-2,6-dioxo-1,2,3,6-tetrahydropyrimidine-4-carboxamide]: at most 10 µM. The same measure, in the same setting: with `COC(=O)[C@@H]1C[C@H](NC(=O)c2[nH]c(=O)[nH]c(=O)c2N)c2ccccc21` [Example 12, (1R,3S)-methyl 3-(5-amino-2,6-dioxo-1,2,3,6-tetrahydropyrimidine-4-carboxamido)-2,3-dihydro-1H-indene-1-carboxylate] the figure was at most 10 µM; with `Nc1c(C(=O)N[C@@H]2CCCc3ccccc32)[nH]c(=O)[nH]c1=O` [Example 13, (R)-5-amino-2,6-dioxo-N-(1,2,3,4-tetrahydronaphthalen-1-yl)-1,2,3,6-tetrahydropyrimidine-4-carboxamide], at most 10 µM; with `Nc1c(C(=O)N[C@@H]2CCc3c2cccc3C(F)(F)F)[nH]c(=O)[nH]c1=O` [Example 14, (R)-5-amino-2,6-dioxo-N-(4-(trifluoromethyl)-2,3-dihydro-1H-inden-1-yl)-1,2,3,6-tetrahydropyrimidine-4-carboxamide], at most 10 µM.

In the case of `CC(C)(C)OC(=O)N1CCC(NC(=O)c2[nH]c(=O)[nH]c(=O)c2N)c2ccccc21` (centres unmarked) [Example 16, tert-butyl 4-(5-amino-2,6-dioxo-1,2,3,6-tetrahydropyrimidine-4-carboxamido)-3,4-dihydroquinoline-1(2H)-carboxylate], the IC50 was at most 10 µM. Still for that read-out and setting: with `COc1ccc2c(c1)OC(C)CC2NC(=O)c1[nH]c(=O)[nH]c(=O)c1N` (centres unmarked) [Example 17, 5-amino-N-(7-methoxy-2-methylchroman-4-yl)-2,6-dioxo-1,2,3,6-tetrahydropyrimidine-4-carboxamide] the figure was at most 10 µM; with `Nc1c(C(=O)N[C@@H]2CC[C@H](c3ccccc3)c3ccccc32)[nH]c(=O)[nH]c1=O` [Example 19, 5-amino-2,6-dioxo-N-((1R,4R)-4-phenyl-1,2,3,4-tetrahydronaphthalen-1-yl)-1,2,3,6-tetrahydropyrimidine-4-carboxamide], at most 10 µM. Turning to `Nc1c(C(=O)N[C@@H]2CC[C@@H](c3ccccc3)c3ccccc32)[nH]c(=O)[nH]c1=O` [Example 20, 5-amino-2,6-dioxo-N-((1R,4S)-4-phenyl-1,2,3,4-tetrahydronaphthalen-1-yl)-1,2,3,6-tetrahydropyrimidine-4-carboxamide], the IC50 is at most 10 µM. The same measure, in the same setting: next, `COC(=O)C[C@H]1C[C@H](NC(=O)c2[nH]c(=O)[nH]c(=O)c2N)c2ccccc2[C@@H]1c1ccccc1` [Example 21, methyl 2-((1S,2R,4S)-4-(5-amino-2,6-dioxo-1,2,3,6-tetrahydropyrimidine-4-carboxamido)-1-phenyl-1,2,3,4-tetrahydronaphthalen-2-yl)acetate]: at most 10 µM.

On to `Nc1c(C(=O)NC2CCCc3cc(OCC(F)(F)F)ccc32)[nH]c(=O)[nH]c1=O` (centres unmarked) [Example 22, 5-amino-2,6-dioxo-N-(6-(2,2,2-trifluoroethoxy)-1,2,3,4-tetrahydronaphthalen-1-yl)-1,2,3,6-tetrahydropyrimidine-4-carboxamide], for which the IC50 was at most 10 µM.

On to `COC(=O)[C@@H]1C[C@@H](NC(=O)c2[nH]c(=O)[nH]c(=O)c2N)c2ccccc2[C@H]1c1ccccc1` [Example 23, (1R,2R,4R)-methyl 4-(5-amino-2,6-dioxo-1,2,3,6-tetrahydropyrimidine-4-carboxamido)-1-phenyl-1,2,3,4-tetrahydronaphthalene-2-carboxylate], for which the IC50 is at most 10 µM.

Regarding `CS(=O)(=O)N1CCC(NC(=O)c2[nH]c(=O)[nH]c(=O)c2N)c2ccccc21` (centres unmarked) [Example 24, 5-amino-N-(1-(methylsulfonyl)-1,2,3,4-tetrahydroquinolin-4-yl)-2,6-dioxo-1,2,3,6-tetrahydropyrimidine-4-carboxamide], the IC50 was at most 10 µM. Same read-out and setting: next, `Nc1c(C(=O)NC2CCN(C(=O)Nc3ccc(C(F)(F)F)cc3)c3ccccc32)[nH]c(=O)[nH]c1=O` (centres unmarked) [Example 26, 4-(5-amino-2,6-dioxo-1,2,3,6-tetrahydropyrimidine-4-carboxamido)-N-(4-(trifluoromethyl)phenyl)-3,4-dihydroquinoline-1(2H)-carboxamide]: at most 10 µM; `Nc1c(C(=O)N[C@@H]2CCc3cc(C(F)(F)F)ccc32)[nH]c(=O)[nH]c1=O` [Example 27, (R)-5-amino-2,6-dioxo-N-(5-(trifluoromethyl)-2,3-dihydro-1H-inden-1-yl)-1,2,3,6-tetrahydropyrimidine-4-carboxamide]: at most 10 µM; `Nc1c(C(=O)N[C@H]2C[C@@H](c3ccccc3)c3ccccc32)[nH]c(=O)[nH]c1=O` [Example 28, 5-amino-2,6-dioxo-N-((1S,3S)-3-phenyl-2,3-dihydro-1H-inden-1-yl)-1,2,3,6-tetrahydropyrimidine-4-carboxamide]: at most 10 µM. Take `Nc1c(C(=O)N[C@H]2CC[C@@H](c3cccc(C(F)(F)F)c3)CC2)[nH]c(=O)[nH]c1=O` [Example 30, 5-amino-2,6-dioxo-N-(cis-4-(3-(trifluoromethyl)phenyl)cyclohexyl)-1,2,3,6-tetrahydropyrimidine-4-carboxamide]: the IC50 is at most 10 µM.
